{"source": "patent US20180147206A1", "about": "“ACTIVATION OF NEURONAL STORE-OPERATED CALCIUM ENTRY PATHWAY FOR THE TREATMENT OF ALZHEIMER'S DISEASE” (The Board of Regents of the University of Texas System, priority 2015, published 2018)", "key": {"[1]": {"test_system": "mushroom spines of hippocampal neurons", "test": "Dendritic spine analysis in primary hippocampal neural cultures", "assay_type": "cell-based, mouse", "conditions": "for mushroom spine loss: 30 nM for 16 hours", "protocol": "FIGS. 4A-E. NSN21778 and Hyperforin rescue synaptic nSOC and mushroom spine loss in AD hippocampal neurons. (FIG. 4A) Chemical structure of NSN21778 and Hyperforin. (FIG. 4B) Time-course of GCaMP5.3 fluorescence signal changes in the spines of wild-type, PS1KI and APPKI hippocampal neurons. The time of extracellular Ca^2+ re-addition is indicated by a black bar above the traces. 100 μM DHPG was added 50 sec prior to Ca^2+ re-addition. The results are shown for control (CON) neurons and for neurons pretreated with 300 nM NSN21778 (+NSN) or 300 nM Hyperforin (+Hyp) for 30 min as indicated. For each experimental group individual spine (grey) and average (red) fluorescence traces are shown. (FIG. 4C) The average nSOC spine peak amplitude is shown for each group of cells shown on panel B. The mean AF/Fo signals for each group and presented as mean±SE (n≥45 spines). ***, p <0.001. (FIG. 4D) Confocal images of wild-type, PS1KI and APPKI hippocampal neurons transfected with TD-Tomato and fixed at DIV15-16. The images are shown for control neurons (CON) and for neurons treated with 30 nM NSN21778 (+NSN) or 30 nM Hyperforin (+Hyp) for 16 hours prior to fixation. Scale bar is 10 μm. (FIG. 4E) The average fraction of mushroom spines for each group of cells shown on FIG. 4D is presented as mean±SE (n≥18 neurons). ***, p <0.001.\nFIGS. 5A-E. TRPC6 is a molecular target for NSN21778 and Hyperforin. (FIGS. 5A-B) Time course of Fura-2 Ca^2+ signals is shown for HEK293 cells transfected with EGFP plasmid (GFP) or combination of EGFP and TRPC6 plasmids (TRPC6). Cells were incubated in ACSF media containing 2 mM Ca^2+. In experiments shown in FIG. 5B, cells were moved to modified ACSF media containing 0.1 mM Ca^2+ for 2 min and then returned to the media containing 2 mM Ca^2+ with addition of 100 μM OAG. The time of addition of 1 μM Hyperforin (Hyp) or NSN21778 (NSN) is indicated by red bars above the Fura-2 traces. For each experimental group individual spine (grey) and average (red) fluorescence traces are shown. (FIG. 5C) The average Ca^2+ influx peak is shown for experiments presented on FIGS. 5A-B as mean±SE (n≥81). (FIG. 5D) Confocal images of wild-type and PS1KI hippocampal neurons transfected with TD-Tomato and fixed at DIV15-16. The neurons were infected with lentiviruses encoding control RNAi (siCtrl), RNAi against TRPC6 (siT6) or RNAi against Orai2 (siO2). The images are shown for no drug treated neurons (CON) and for neurons treated with 30 nM NSN21778 (+NSN) or 30 nM Hyperforin (+Hyp) for 16 hours prior to fixation. Scale bar is 10 μm. No drug treated group of wild-type and PS1KI neurons is from the same experiment as shown on FIG. 2A-J. (FIG. 5E) The average fraction of mushroom spines for each group of cells shown on panel A is presented as mean±SE (n≥19 neurons). ***, p <0.001.\nDendritic Spine Analysis in Primary Hippocampal Neural Cultures. The hippocampal cultures of PS1KI, APPKI and WT mice were established from postnatal day 0-1 pups and maintained in culture as the inventors described previously [Zhang, 2010 #5733]. For assessment of synapse morphology, hippocampal cultures were transfected with TD-Tomato plasmid at DIV7 using the calcium phosphate method and fixed (4% formaldehyde, 4% sucrose in PBS, pH 7.4) at DIV15-16. A Z-stack of optical section was captured using 100× objective with a confocal microscope (Carl Zeiss Axiovert 100M with LSM510). 18-20 cultured neurons from three batches of cultures were used for quantitative analysis per genotype. Quantitative analysis for dendritic spines was performed by using NeuronStudio software package [Rodriguez, 2008 #6276]. To classify the shape of neuronal spines in culture, the inventors adapted an algorithm from published method [Rodriguez, 2008 #6276]. In classification of spine shapes the inventors used the following cutoff values: aspect ratio for thin spines (AR_thin(crio))=2.5, head to neck ratio (HNR(crit))=1.4, and head diameter (HD(crit))=0.5 μm. […]"}, "TRPC6": {"target": "T1, TRPC6 (Homo sapiens, UniProt Q9Y210)", "T1 construct": "expressed in transfected cells; host or cells: HEK293", "T1 sequence (Q9Y210 1-931)": "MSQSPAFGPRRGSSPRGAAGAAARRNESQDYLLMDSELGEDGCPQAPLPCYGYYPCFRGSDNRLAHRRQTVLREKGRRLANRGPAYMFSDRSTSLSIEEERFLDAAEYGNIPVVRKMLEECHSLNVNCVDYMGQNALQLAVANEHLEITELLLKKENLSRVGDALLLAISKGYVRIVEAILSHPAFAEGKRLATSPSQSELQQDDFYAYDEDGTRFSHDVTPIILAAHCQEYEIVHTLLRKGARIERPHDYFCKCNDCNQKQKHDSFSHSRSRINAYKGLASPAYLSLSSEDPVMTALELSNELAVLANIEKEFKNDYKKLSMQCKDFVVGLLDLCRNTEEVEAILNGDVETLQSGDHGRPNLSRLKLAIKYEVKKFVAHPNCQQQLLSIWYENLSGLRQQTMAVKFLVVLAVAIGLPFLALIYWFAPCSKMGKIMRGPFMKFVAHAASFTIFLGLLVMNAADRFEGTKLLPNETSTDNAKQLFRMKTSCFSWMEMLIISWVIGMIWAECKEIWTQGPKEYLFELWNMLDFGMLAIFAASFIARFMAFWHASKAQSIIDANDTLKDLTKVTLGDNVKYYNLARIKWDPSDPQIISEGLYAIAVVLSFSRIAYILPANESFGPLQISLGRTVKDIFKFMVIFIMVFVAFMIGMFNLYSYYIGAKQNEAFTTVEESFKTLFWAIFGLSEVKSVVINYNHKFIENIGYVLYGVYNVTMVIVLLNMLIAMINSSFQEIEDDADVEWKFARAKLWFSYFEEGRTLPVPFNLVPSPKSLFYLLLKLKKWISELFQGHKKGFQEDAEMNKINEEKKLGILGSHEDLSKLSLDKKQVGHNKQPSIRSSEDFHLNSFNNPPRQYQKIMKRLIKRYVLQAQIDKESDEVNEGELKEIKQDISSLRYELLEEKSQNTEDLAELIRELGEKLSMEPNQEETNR", "test": "Fura-2 Ca2+ imaging in TRPC6-transfected HEK293 cells", "assay_type": "cell-based", "conditions": "for Ca2+ influx: 1 μM; for Ca2+ influx response: TRPC6-transfected cells, 100 μM"}, "spine nSOC channels": {"test_system": "spine nSOC channels", "test": "GCamp5.3 Ca2+ imaging of synaptic nSOC in cultured hippocampal neurons", "assay_type": "cell-based, mouse"}, "[2]": {"test_system": "AβPPSwe/PSEN1ΔE9 (AβPP/PS1) transgenic mice", "conditions": "previous studies; cited from earlier work"}, "TRPC3/6/7 channels": {"test_system": "TRPC3/6/7 channels", "conditions": "recent study (Montecinos-Oliva et al., 2014); cited from earlier work"}}}
{"molecule": "CC(C)=CCC[C@]1(C)[C@@H](CC=C(C)C)C[C@@]2(CC=C(C)C)C(=O)[C@]1(C(=O)C(C)C)C(=O)C(CC=C(C)C)=C2O", "note": "[Hyperforin]", "values": [{"measurement": "mushroom spines", "setting": "[1]; PS1KI and APPKI neurons, 30 nM for 16 hr", "result": "complete rescue"}, {"measurement": "mushroom spine loss", "setting": "[1]; PS1KI cultures infected with control RNAi lentiviruses", "result": "rescued mushroom spine loss"}, {"measurement": "mushroom spine loss", "setting": "[1]; PS1KI hippocampal neurons following knockdown of TRPC6 or Orai2", "result": "failed to rescue mushroom spine loss"}, {"measurement": "mushroom spine loss", "setting": "[1]; wild-type neurons with knockdown of TRPC6 or Orai2", "result": "failed to rescue"}, {"measurement": "fraction of mushroom spines", "setting": "[1]; wild-type neurons, 30 nM for 16 hr", "result": "no significant effect"}, {"measurement": "toxicity, acute", "setting": "hippocampal neurons", "result": "very large Ca^2 elevations and toxicity"}, {"measurement": "toxicity, overnight", "setting": "hippocampal neurons", "result": "neuronal toxicity in some batches"}, {"measurement": "Ca2+ influx", "setting": "TRPC6; TRPC6-transfected HEK293 cells, 2 mM Ca2+", "result": "activated Ca^2+ influx"}, {"measurement": "Ca2+ influx", "setting": "TRPC6; control HEK293 cells transfected with EGFP plasmid", "result": "not in control cells"}, {"measurement": "spine nSOC", "setting": "spine nSOC channels; PS1KI and APPKI hippocampal neurons, 300 nM applied prior to Ca2+ re-addition", "result": "rescued spine nSOC"}, {"measurement": "spine nSOC", "setting": "spine nSOC channels; wild-type spines, 300 nM", "result": "no significant effect"}, {"measurement": "beta-amyloid neurotoxicity and spatial memory impairments", "setting": "[2]", "result": "able to prevent"}]}
{"molecule": "CCCCCCCC/C=C/CCCCCCCC(=O)OCC(CO)OC(C)=O", "note": "(stereo not shown) [OAG]", "values": [{"measurement": "Ca2+ influx response", "setting": "TRPC6; standard recording conditions (data not shown)", "result": "highly variable responses"}, {"measurement": "Ca2+ influx response", "setting": "TRPC6; stores partially depleted by 0.1 mM Ca2+ preincubation", "result": "more consistent responses"}, {"measurement": "Ca2+ responses in spines", "setting": "spine nSOC channels; direct application to hippocampal neuronal cultures (data not shown)", "result": "induced Ca^2+ responses in just a few spines"}]}
{"molecule": "tetrahydrohyperforin [IDN5706]", "values": [{"measurement": "Aβ-induced synaptic plasticity defects", "setting": "TRPC3/6/7 channels", "result": "rescued"}]}
